The text below walks through data of patent US10947229B2, “Dimethyl amino azetidine amides as JAK inhibitors” (THERAVANCE BIOPHARMA R&D IP, LLC, priority 2018, dated 2021).

As usually defined, the inhibition is the share of the control response that was lost under treatment.

A short description of one data set: Lung S9 metabolism. In kind it is in vitro ADME, human. The procedure: The time 0, 15, 30, and 60 minute samples were analyzed for parent compound by high resolution LC-MS/MS. Lung S9 fractions from human (lot 1410245) were purchased from XenoTech LLC (Lenexa, Kans.). NADPH (Sigma Aldrich, N1630) and 3-phosphoadenosine 5-phosphosulfate (PAPS) (Sigma Aldrich, A1651) were purchased from Sigma Aldrich (St. Louis, Mo.). Acetonitrile and water were obtained from VWR (Radnor, Pa.) and were of HPLC grade or better. Raloxifene and formic acid was purchased from Sigma Aldrich (St. Louis, Mo.). Lung S9 incubations were performed in a water bath at 37° C. in a 96-well polypropylene plate. […] Louis, Mo.), 3 mM magnesium chloride (Sigma Aldrich, M1028) and in the presence of 100 μM PAPS (Sigma-Aldrich, St. […] Incubation volumes consisted of 400 μL and time points were taken at 0, 15, 30, and 60 minutes by the removal of a 70 μL aliquot and dilution into 140 μL acetonitrile (0% formic acid). All samples were centrifuged at 2250 g for 10 minutes at 5° C. Supernatant […] was taken from the centrifuged samples and diluted into 100 μL HPLC water containing internal standard. The samples were run on a Dionex Ultimate 3000 Auto sampler and analyzed using a Thermo Q-Exactive High Resolution Mass Spectrometer (Thermo, Waltham, Mass.) in Full Scan mode in conjunction with an Atlantis T3 column 3 μM-2.1×50 mm (Waters Inc., 186003717). Mobile Phase A consisted of Water+0.2% formic acid and Mobile Phase B consisted of acetonitrile +0.2% formic acid. Peak integration was accomplished using Gubbs GMSU software (Gubbs Inc., Alpharetta, Ga.). For each sample, peak area ratios were calculated by dividing the analyte peak area by the internal standard peak area. For each incubation, the peak area ratios of the analytes in each t0 was set to 100%, and the peak areas ratios from the 60 minute samples were converted to percentages remaining relative to the corresponding t0. Determination of sulfate metabolite formation was made qualitatively by observation of early-eluting peak in the parent ion channel which, based on historical internal data, corresponded to the O-sulfate metabolite of each parent compound.

Data set [1] relates to IFNγ stimulated STAT1 phosphorylation in CD14+ monocytes. In words: Cellular JAK potency assay: inhibition of IFNγ-induced pSTAT1. In kind it is cell-based. The following applies: Monocyte; CD14+ monocytes from human whole blood; read-out: pIC50, inhibition of IFNγ-induced pSTAT1 (converted). The protocol: The potency of test compounds for inhibition of interferon gamma (IFNγ) stimulated STAT1 phosphorylation was measured in CD14-positive (CD14+) monocytes derived from human whole blood (Stanford Blood Center) using flow cytometry. Because IFNγ signals through JAK, this assay provides a measure of JAK cellular potency. Monocytes were identified using a fluorescein isothiocyanate (FITC) conjugated anti-CD14 antibody (Clone RM052, Beckman Coulter), and an Alexa Fluor 647 conjugated anti-pSTAT1 antibody ([…], Clone 4a, BD Biosciences) was used to detect STAT1 phosphorylation. Human peripheral blood mononuclear cells (PBMC) were isolated from human whole blood of healthy donors using a ficoll gradient. […] Cells were washed twice with FACS buffer, and then re-suspended in 1:10 anti-pSTAT1 Alexa Fluor 647:FACS buffer (100 μL) for 30 min at RT in the dark, washed twice in FACS buffer, and analyzed using a MACSQuant flow cytometer (Miltenyi). To determine the inhibitory potency of the test compound, the median fluorescent intensity (MFI) of pSTAT1 was measured in CD14+ monocytes. IC50 values were determined from analysis of the inhibition curves of MFI vs compound concentration. Data are expressed as pIC50 (negative decadic logarithm IC50) values.

For data set [2], the system named is IFNγ induced CXCL9 secretion. Briefly: Inhibition of IFNγ induced CXCL9 in human 3D airway cultures. The class given is cell-based. The settings on record: 192 h, 8 days, 4 donors. The procedure:
EpiAirway tissue cultures were obtained from Mattek (AIR-100). Cultures were derived from asthmatic donors. In a cell culture insert, human derived tracheal/bronchial epithelial cells were grown and differentiated on a porous membrane support, allowing an air-liquid interface with warmed culture medium below the cells and a gaseous test atmosphere above. Tissues were cultured in maintenance media ([…]) in a 37° C., 5% CO2 humidified incubator. Four donors were tested. On Day 0, tissue cultures were treated with test compounds in liquid interface at 10 μM, 1 μM and/or 0.1 μM. Compounds were diluted in dimethyl sulfoxide (DMSO, Sigma) to a final concentration of 0.1%. DMSO at 0.1% was used as a vehicle control. […] Tissue cultures were maintained for 8 days. Media was replaced every 2 days with fresh media containing compounds and IFNγ or IL-27. On Day 8, tissue cultures and supernatants were collected for analysis. Supernatant samples were assayed for CXCL10 (IP-10) and CXCL9 (MIG) using luminex analysis (EMD Millipore). Data is expressed as % Inhibition+/-standard deviation (±STDV). Percent inhibition was determined by compound inhibitory potency against IFNγ or IL-27 induced CXCL10 or CXCL9 secretion compared to vehicle treated cells. Data is the average from 4 donors.

Consider `CCc1cc(O)ccc1-c1ccc2c(-c3nc4c([nH]3)CN(C(C)C)[C@H](C(=O)N3CC(N(C)C)C3)C4)n[nH]c2c1` [Compound 1, (S)-(3-(dimethylamino)azetidin-1-yl)(2-(6-(2-ethyl-4-hydroxyphenyl)-1H-indazol-3-yl)-5-isopropyl-4,5,6,7-tetrahydro-3H-imidazo[4,5-c]pyridin-6-yl)methanone], for which the “Compound Remaining at 60 min (%)” value in the data set “Lung S9 metabolism” (human lung S9, 1 μM compound, 1 mg/mL S9 protein, 60 min) came out at 81%. In addition, the “Sulfate Appearance” value in the data set “Lung S9 metabolism” (human lung S9, qualitative O-sulfate metabolite peak) was “Yes”. Besides, in “Lung S9 metabolism” (human lung S9 fraction, pH 7.4, human lung S9, 1 μM compound, 1 mg/mL S9 protein, NADPH and PAPS, read-out: Clearance), the microsomal CLint at 1 µM came to 3.5 µL/min/mg. Besides, the IC50 in data set [1] is 0.0316 µM. Moreover, in data set [2] (0.1 μM), the inhibition at 0.1 µM turned out to be 16%. For the same compound, testing at 1 µM in data set [2] (1 μM) gave an inhibition of 93%. This compound also gave an inhibition at 10 µM in data set [2] (10 μM) of 100%.
